{
  "source": "patent US20190083498A1",
  "about": "“THERAPIES FOR HEMATOLOGIC MALIGNANCIES” (GILEAD CALISTOGA LLC, priority 2008, published 2019)",
  "key": {"over 350 protein kinases": {"system": "over 350 protein kinases", "assay": "Ambit KINOMEscan kinome-wide protein kinase screen", "assay_type": "binding", "conditions": "10 μM", "text": "Examples of some kinases in the screen are shown below in Table 3."}, "LB cells": {"system": "LB cells", "assay": "LB cell proliferation with or without BMSCs, [3H]-thymidine uptake", "assay_type": "cell-based, human", "conditions": "0.625 μM-10 μM, 48 hours", "protocol": "LB cells were cultured with control media, and with the compound of formula I for 48 hours, in the presence or absence of BMSCs. Cell proliferation was assessed using [^3H]-thymidine uptake assay. All data represent mean (±SD) of triplicate experiment."}, "[1]": {"system": "T-ALL and B-ALL leukemic cell lines", "assay": "Viability of ALL cell lines, AlamarBlue", "assay_type": "cell-based", "conditions": "48 hours", "protocol": "Viability assays of cell lines were performed using the AlamarBlue assay (Invitrogen). Cells (1×10^6 per well) in a volume of 100 μL were placed in a 96-well flat-bottom plate and the compound of formula I (100 μL per well at 2× final concentration) or medium alone was added to the plates. All were performed in quadruplicate. Cells were incubated for fixed times (48 hours). After the incubation, 10 μL AlamarBlue® was added to each well. Cells were incubated for 4 hours and the optical density at 530-560 nm was obtained using a SpectraMax® M5 plate reader 2001. Cell viability was expressed as a percentage of absorption between treated cells/control sample."}, "phospho-Akt(Ser473)": {"system": "phospho-Akt(Ser473)", "assay": "Constitutive Akt phosphorylation in leukemia and lymphoma cell lines, immunoblot", "assay_type": "cell-based", "protocol": "A large panel of leukemia and lymphoma cell lines was assessed for constitutive Akt phosphorylation. These cell lines represent B-lymphoma, T-lymphoma, ALL, Malignant histiocytosis, DLBCL and AML. […] Thereafter, cell were lysed, size-fractioned and immunoblotted with antibodies directed against phospho-Akt(Ser473).\nThe PI3K pathway is frequently deregulated in leukemia and lymphoma cell lines. […] In addition, PI3K pathway activation is dependent on p110δ."}, "[2]": {"system": "HS-578T, T47D, and MCF7 cells", "assay": "Apoptosis in breast cancer cell lines, Annexin V-FITC/7AAD", "assay_type": "cell-based", "conditions": "24 h", "protocol": "HS-578T, T47D, and MCF7 cells were treated with the compound of formula I or corresponding DMSO concentrations for 24 h. The percentage of apoptotic cells was determined by Annexin V-FITC/7AAD staining Bottom left, viable cells (Annexin V-FITC/[…] negative); bottom right, early apoptotic cells (Annexin V-FITC positive only); top right, mid-late apoptotic cells (Annexin V-FITC/7AAD double-positive); and top left, late apoptotic/necrotic (7AAD positive only). Percentages of cells in each quadrant are indicated except for the bottom left quadrant (viable cells)."}, "[3]": {"system": "cleavage of caspase 3 and PARP", "assay": "Caspase 3 and PARP cleavage, MSD multi-spot plates", "assay_type": "cell-based", "conditions": "5 or 10 μM; 24 hrs", "protocol": "Thereafter, cells were lysed and sized-fractionated and immunoblotted with antibody directed against FLIP, FIG. 29. Additionally, whole cell lysates were added to MDS (Meso Scale Diagnostics) multi-spot 96-well 4 spot plates coated with Total caspase-3, cleaved caspase-3, cleaved PARP, and BSA. Proteins were detected with antibodies labeled with SULFO-TAG reagent and quantified."}, "INA-6 cells": {"system": "INA-6 cells", "assay": "Cleavage of caspases and PARP, western blot", "assay_type": "cell-based, human", "conditions": "0-5 μM, 120 h", "text": "Whole-cell lysates were subjected to sodium dodecyl sulfate-polyacrylamide gel electrophoresis (SDS-PAGE) separation, transferred to Pure Nitrocellulose membranes (Bio-Rad Laboratories, Hercules, Calif.), and immunoblotted with anti-AKT, phospho(p)-AKT (Ser473, Thr 308), ERK1/2 , P-ERK1/2, P-PDK1, STAT, P-STAT, P-FKRHL, P-70S6K, LC3, and PI3K/p110 α Abs (Cell Signaling Danvers, Mass.); anti-p110β, PI3K/p110δ, Glyceraldehyde 3-phosphate dehydrogenase (GAPDH), α-tubulin, and actin Abs (Santa Cruz Biotechnology, Calif.); and anti-p110 γ Ab (Alexis, San Diego, Calif.): and anti-LC3 Ab (Abgent, San Diego, Calif.).\nTotal cell lysates were subjected to immunoblotting using anti-caspase-3, -8, -9, PARP, and α-tubulin Abs. FL indicates full-length protein, and CL indicates cleaved protein."}, "[4]": {"system": "phospho-AKT (ser473) in INA-6 cells", "assay": "Bortezomib-induced AKT phosphorylation, western blotting", "assay_type": "cell-based, human", "conditions": "compound I 5 μM, bortezomib 5 nM; 6 h", "protocol": "Phosphorylation of AKT was determined by western blotting of cell lysates using phospho-AKT (ser473) antibody, FIG. 37B. Actin served as a loading control."}, "MCL cell lines": {"system": "MCL cell lines", "assay": "Survival factor signaling (pAkt) in MCL cell lines", "assay_type": "cell-based"}, "CLL cells": {"system": "CLL cells", "assay": "BH3 profiling, mitochondrial depolarization (JC-1)", "assay_type": "cell-based, human", "protocol": "BH3 profiling: CLL patient peripheral blood, bone marrow, and lymph node samples were analyzed by either the plate-based fluorimetry or FACS method. Briefly, PBMCs from CLL patients were made into single cell suspensions and gently permeabilized using digitonin (0.002%). For the fluorimtery-based method, 100 μM JC-1 (Invitrogen) was added at this time and cells were then loaded onto a 384-well plate, with individual wells containing individual BH3-only peptides. The JC1-BH3 assays were then conducted in triplicate on a Tecan Safire 2 with Ex 545 +/−[…] and Em 590 +/−20 nm with a three-hour time course. For the FACS-based method, single cell suspensions from CLL patient PBMCs were stained using human Fc Block (BD Pharmingen) followed by anti-CD19-V450 (BD Pharmingen) and anti-CXCR4-APC (BD Pharmingen). […] JC-1 was measured from the 488-nm laser using a 530/30-nm filter (FITC) and a 585/42-nm filter (PE), and the degree of mitochondrial depolarization was calculated using the surrogate of the change in the median of PE signal. The mitochondrial depolarization reported in response to each BH3 peptide is normalized relative to the median percentage change in PE fluorescence of the JC-1 dye with a negative control, dimethyl sulfoxide (DMSO) (0%) and a positive control, the mitochondrial uncoupling agent carbonyl cyanide 4-(trifluoromethoxy)- phenylhydrazone (FCCP) (100%)."}},
  "note": "Values joined by “and” are separate entries in the source; they are usually repeats but may differ in a detail not shown here. Equal values may be shown once.",
  "data": [
    {"smiles": "CC[C@H](Nc1ncnc2[nH]cnc12)c1nc2cccc(F)c2c(=O)n1-c1ccccc1", "note": "[Compound I, 5-fluoro-3-phenyl-2-[1-(9H-purin-6-ylamino)-propyl]-3H-quinazolin-4-one]", "values": [
      {"measurement": "off target activity in kinome-wide protein kinase screen", "setting": "over 350 protein kinases", "result": "failed to detect any activity"},
      {"measurement": "off target activity in kinome-wide protein kinase screen", "setting": "over 350 protein kinases; listed as compound of formula I", "result": "little activity"},
      {"measurement": "LB cell growth in the presence of BMSC", "setting": "LB cells", "result": "reduced"},
      {"measurement": "cellular viability of ALL cell lines", "setting": "[1]", "result": "significant reduction in cell viability"},
      {"measurement": "cellular viability of ALL cell lines", "setting": "[1]; listed as compound I", "result": "substantial reduction in cellular viability"},
      {"measurement": "cell lines in which constitutive AKT phosphorylation was inhibited (FIG. 9)", "setting": "phospho-Akt(Ser473); 10 μM, 2 hrs, including B-cell and T-cell lymphomas", "result": "11 out of 11"},
      {"measurement": "constitutive Akt(Ser473) phosphorylation", "setting": "phospho-Akt(Ser473); hematopoietic tumor cell lines, 2 hours", "result": "Reduction in Akt(Ser473) was achieved for all cell lines"},
      {"measurement": "cell lines in which constitutive AKT phosphorylation was inhibited", "setting": "phospho-Akt(Ser473); leukemia and lymphoma cell lines with constitutive p-AKT", "result": "13 of 13 and 13 out of 13"},
      {"measurement": "apoptosis in breast cancer cell lines", "setting": "[2]", "result": "induces apoptosis"},
      {"measurement": "cleavage of caspase 3 and PARP", "setting": "[3]", "result": "dose dependent response"},
      {"measurement": "cleavage of caspase-8, caspase-9, caspase-3, and PARP", "setting": "INA-6 cells", "result": "Significantly increased cleavage"},
      {"measurement": "induction of phospho-Akt by bortezomib treatment", "setting": "[4]", "result": "inhibited"},
      {"measurement": "pAkt in MCL lines exposed to survival factors", "setting": "MCL cell lines", "result": "significant reduction of pAkt"},
      {"measurement": "mitochondrial priming of stroma-exposed CLL cells", "setting": "CLL cells; 24 hours, p=0.075", "result": "increased mitochondrial priming"},
      {"measurement": "mitochondrial depolarization induced by BAD BH3 peptide and ABT-737 in treated CLL cells", "setting": "CLL cells; p=0.046 and p=0.047", "result": "significantly more mitochondrial depolarization"}
    ]}
  ]
}
